Assay results taken from patent publication US7268113B2, “Long lasting growth hormone releasing factor derivatives” (ConjuChem Biotechnologies Inc., priority 2002, dated 2007).
Read-outs that look alike come from different tables or passages of the source. Where a SMILES comes first, the peptide text is derived from it. [ ]: non-standard residue; d: D form. The star is where a group is joined. Propanoyl(3-maleimido) = O=C1C=CC(=O)N1CCC(=O)*

How the values were obtained:
[1] = Pharmacokinetic studies in male Sprague-Dawley rats (plasma RIA); assay type: in vivo, rat
Protocol: Pharmacokinetic studies were carried out on the compounds of Examples 5 and 6. Each compound was injected subcutaneously (1 μmol/kg) or intravenously (100 nmol/kg) to male Sprague-Dawley rats. Serial blood samples were taken at pre-dose, 5, 30 and 60 minutes and 2, 4, 8, 24, 48, 72 and 96 hours post-agent administration. Plasma were harvested and frozen until analysis by radioimmunoassay (RIA). A commercial polyclonal antibody raised against human native GRF (1–29) was used to detect the compounds. The assay sensitivity was 300 to 10 000 pM. Consequently, some samples had to be diluted for analysis. The results of the pharmacokinetic profiles appear in FIG. 9. As it can be seen, the compound of Example 5, i.e., the native peptide, disappears very rapidly. In fact, the compound of Example 5, whether administered subcutaneously or intrasvenously, could not be detected after 60 minutes post administration. This is consistent with results in Sprague-Dawley rats reported in the literature for GRF (1–29) and other analogues thereof, regarding the terminal half-life thereof and the percentage of bioavailability (SC/IV) (see for example Peptides, 9:207–209, and J. Endocr., 107:R5–R8.

[2] = in vivo; cited from earlier work

Compound	λ ([1]; intravenous administration, 100 nmol/kg, male Sprague-Dawley rats)	half-life ([1]; rat, in vivo, sc, 1 umol/kg, subcutaneous administration, 1 μmol/kg, male Sprague-Dawley rats, read-out: Terminal half-life (converted)) [h]	time post administration at which compound remains detectable in plasma ([1]; subcutaneous (1 μmol/kg) or intravenous (100 nmol/kg), plasma RIA, FIG. 9) [h]	λ ([1]; subcutaneous administration, 1 μmol/kg, male Sprague-Dawley rats)	half-life [2] [h]
CC[C@H](C)[C@H](NC(=O)[C@H](C)NC(=O)[C@H](CC(=O)O)NC(=O)[C@@H](C)NC(=O)[C@@H](N)Cc1ccc(O)cc1)C(=O)N[C@@H](Cc1ccccc1)C(=O)N[C@H](C(=O)N[C@@H](CCC(N)=O)C(=O)N[C@@H](CO)C(=O)N[C@@H](Cc1ccc(O)cc1)C(=O)N[C@@H](CCCNC(=N)N)C(=O)N[C@@H](CCCCN)C(=O)N[C@H](C(=O)N[C@@H](CC(C)C)C(=O)N[C@@H](C)C(=O)N[C@@H](CCC(N)=O)C(=O)N[C@@H](CC(C)C)C(=O)N[C@@H](CO)C(=O)N[C@@H](C)C(=O)N[C@@H](CCCNC(=N)N)C(=O)N[C@@H](CCCCN)C(=O)N[C@@H](CC(C)C)C(=O)N[C@@H](CC(C)C)C(=O)N[C@@H](CCC(N)=O)C(=O)N[C@@H](CC(=O)O)C(=O)N[C@H](C(=O)N[C@@H](CC(C)C)C(=O)N[C@@H](CO)C(=O)N[C@@H](CCCNC(=N)N)C(=O)N[C@@H](CCCCNC(=O)CCN1C(=O)C=CC1=O)C(N)=O)[C@@H](C)CC)C(C)C)[C@@H](C)O [Example 6] (H-Y[dA]DAIFTQSYRKVLAQLSARKLLQDILSRK(Propanoyl(3-maleimido))-NH2)	0.037	25.8 ± 2.1	≥ 96	0.027	
GRF 1–29: N-terminal 1–29 fragment of growth hormone releasing factor; commercial GRF(1–29) from Polypeptide Laboratories used as comparator					0.167 to 0.217
